The values below are quoted from earlier work in patent US20180161366A1, “METHODS OF OBTAINING MONONUCLEAR BLOOD CELLS AND USES THEREOF” (Biokine Therapeutics Ltd., priority 2015, published 2018).

The conditions of the data set: from DiPersio Blood 2008; cited from earlier work.

In the case of `c1cc(CN2CCCNCCNCCCNCC2)ccc1CN1CCCNCCNCCCNCC1` [AMD3100], the “B cells (CD19), Median (range)” value is recorded as 1.0 (0.2-2.4) × 10^8/Kg; the “Cytotoxic T cells (CD3+CD8+), Median (range)” value is 1.3 (0.4-3.4) × 10^8/Kg; the “HSPC (CD34+), Median (range)” value was 2.9 (1.2-6.3) × 10^6/Kg; the “NK cells (CD3−CD56+), Median (range)” value was 0.3 (0.1-1.0) × 10^8/Kg. The “T cells (CD3+), Median (range)” value is reported as 4.6 (1.5-7.8) × 10^8/Kg and the “T helper cells (CD3+CD4+), Median (range)” value was 3.2 (1-5.7) × 10^8/Kg.

B1: G-CSF: mobilization agent (protein, UniProt P09919 31-207, looked up)
Granulocyte …: TPLGPASSLPQSFLLKCLEQVRKIQGDGAALQEKLVSECATYKLCHPEELVLLGHSLGIPWAPLSSCPSQALQLAGCLSQLHSGLFLYQGLLQALEGISPELGPTLDTLQLDVADFATTIWQQMEELGMAPALQPTQGAMPAFASAFQRRAGGVLVASHLQSFLEVSYRVLRHLAQP
On to B1, for which the “Cytotoxic T cells (CD3+CD8+), Median (range)” value was 0.4 (0.4-3.4) × 10^8/Kg; the “HSPC (CD34+), Median (range)” value is on record as 4.2 (2.5-18) × 10^6/Kg; the “NK cells (CD3−CD56+), Median (range)” value is listed as 0.2 (0.2-0.5) × 10^8/Kg; the “T cells (CD3+), Median (range)” value is 1.3 (1.2-6.8) × 10^8/Kg. Moreover, the “T helper cells (CD3+CD4+), Median (range)” value is 1.1 (0.7-3.2) × 10^8/Kg.
